This is an account of results in PubChem BioAssay (NCI).

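Method: 48-hour compound exposure of cells in 96-well plates, five concentrations, linear interpolation of endpoints. GI50 = concentration required for 50% inhibition of growth. TGI denotes the concentration required for complete inhibition of growth.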

Common to all, as to assay: NCI tumour cell line growth inhibition, 48 h
The test system of assay [1] is SF-539 CNS.
Assay [2] deals with A549 NSCLC.
Assay [3] relates to HCC-2998 colon.
Assay [4] has as its system MDA-MB-435.
In assay [5] the test system is LOX IMVI melanoma.
Assay [6] has as its system UO-31 renal.
Assay [7] has as its system DU-145 prostate.
Assay [8] deals with HCT-15 colon.
Assay [9] deals with DLD-1 colon.
For assay [10], the system named is HOP-18 NSCLC.

Take `COc1cc(N2CCC(N3CCN(C)CC3)CC2)ccc1Nc1ncc(Cl)c(Nc2ccccc2S(=O)(=O)C(C)C)n1`: the GI50 is 1.39 µM in [1]; 0.402 µM in [2]; 1.07 µM in assay [3]; 0.387 µM in assay [4]; 0.332 µM in assay [5]; 1.12 µM in assay [6]. Moreover, the GI50 in assay [7] is 1.46 µM; in assay [8] it was 1.94 µM. The TGI in assay [1] was determined as 2.74 µM; in [2] it was 2.03 µM; in assay [3], 2.39 µM; in assay [4], 2.36 µM; in [5], 1.47 µM; in assay [6], 2.44 µM. Also, the figures for the TGI in [7] and in [8] were 7.88 µM and 11.5 µM, respectively.

As to `CC(CN)[C@@H]1CC[C@]2(CO)CC[C@]3(C)[C@H](CC[C@@H]4[C@@]5(C)CCC(N)C(C)(C)[C@@H]5CC[C@]43C)[C@@H]12` (stereo partly specified), the GI50 was 1.72 µM in [1]; 1.85 µM in assay [2]; 1.89 µM in [3]; 1.73 µM in assay [4]; 1.66 µM in assay [5]; 1.55 µM in assay [6]. In addition, the values for the GI50 in [7] and in assay [8] were 1.8 µM and 1.69 µM, respectively. The TGI in [1] stood at 3.31 µM; in assay [2] it was 3.29 µM; in [3] it was 3.66 µM; in assay [4], 3.26 µM; in [5], 3.33 µM; in assay [6] it was 3.04 µM. In addition, the TGI in [7] stood at 3.3 µM; in [8], 3.49 µM.

With `O=S(=O)(Nc1ccccn1)c1ccc(N=Nc2ccc(O)c3ncccc23)cc1`, the GI50 was 0.54 µM in [1]; 1.65 µM in [2]; 3.73 µM in assay [3]; 0.638 µM in assay [4]; 0.735 µM in assay [5]; 0.696 µM in assay [6]. The results for the GI50 in [7] and in [8] were 3.22 µM and 0.844 µM, respectively. Further, the TGI worked out at 4.18 µM in assay [1]; 14 µM in assay [2]; 18.4 µM in assay [3]; 8.41 µM in [4]; 16 µM in assay [5]; 3.33 µM in assay [6]. The values for the TGI in [7] and in assay [8] were 26.7 µM and 15.7 µM, respectively.

On to `COC(=O)Cc1cc(=O)n2c([nH]c3ccccc32)c1C#N`, for which the TGI in assay [1], in [2], in [3], in assay [5], in assay [9] and in assay [6] was over 100 µM throughout. The same molecule came in with a TGI in assay [8] of over 100 µM.

As to `Fc1cccc(-c2[nH]nc3nc(Nc4cccnc4)sc23)c1`, the GI50 in assay [1] was 3.02 µM; in [2] it was 4.18 µM; in [3], over 100 µM; in [4] it was 0.28 µM; in [5], 3.68 µM; in [6], 95.1 µM. Also, the figures for the GI50 in assay [7] and in assay [8] were 4.71 µM and 0.948 µM, respectively. In addition, the TGI in assay [1], in assay [2], in assay [3], in [4], in assay [5] and in assay [6] was over 100 µM each time. Besides, the TGI is 24.8 µM in assay [7] and over 100 µM in assay [8].

In the case of `Nc1nc(=Nc2ccccc2)ss1`, the TGI in assay [1], in assay [10], in assay [2], in [3], in assay [5] and in assay [9] was over 100 µM throughout. In addition, in assay [6], the TGI is over 100 µM.

Take `COC1=C(OC)[C@]2(OC)c3c(O)c(OC)c4c(c3O[C@@]23O[C@@H](c2ccccc2)CC=C3C1=O)[C@@H](O)C[C@H](c1ccccc1)O4`: the GI50 is 0.934 µM in assay [1]; 2.01 µM in assay [2]; 0.564 µM in assay [3]; 0.27 µM in [4]; 0.157 µM in assay [5]; 1.33 µM in [6]. The figures for the GI50 in assay [7] and in assay [8] were 2.23 µM and 0.157 µM, respectively. Besides, the TGI in assay [1] is 2.5 µM; in assay [2], 4.39 µM; in assay [3], 1.96 µM; in [4] it was 0.87 µM; in [5], 0.377 µM; in [6], 2.6 µM. In addition, the TGI in [7] turned out to be 4.56 µM; in assay [8] it was 0.34 µM.

Take `COc1cc(C)c(NC(=O)CN(C)C)cc1Nc1nc(Nc2cccc(F)c2C(N)=O)c2cc[nH]c2n1`: the GI50 was 3.05 µM in assay [1]; 0.945 µM in [2]; 0.621 µM in [3]; 0.161 µM in assay [4]; 1.45 µM in assay [5]; 3.33 µM in [6]. In addition, the GI50 in assay [7] was 0.826 µM; in assay [8], 1.98 µM. Moreover, the TGI in assay [1] came to 7.07 µM; in assay [2] it was 4.82 µM; in assay [3], 5.09 µM; in [4], 2.56 µM; in assay [5], 6.1 µM; in [6], 7.08 µM. The results for the TGI in assay [7] and in assay [8] were 3.7 µM and 6.9 µM, respectively.

As for `Cc1c(-c2nnc(-c3cc(Cl)c(Cl)cc3Cl)o2)nnn1-c1ccnc2c(C(F)(F)F)cccc12`, the GI50 in [1] is 18.5 µM; in assay [2], 17.8 µM; in assay [3], 29.1 µM; in assay [4], 26.8 µM; in assay [5], 19.7 µM; in assay [6] it was 16.8 µM. In addition, the GI50 was 19.5 µM in assay [7] and 31.5 µM in assay [8]. In addition, the TGI came out at 34.4 µM in [1]; 42.9 µM in assay [2]; 91.9 µM in assay [3]; 75.1 µM in assay [4]; 38.7 µM in assay [5]; 34.7 µM in [6]. Besides, the TGI in assay [7] is 41.6 µM; in [8], over 100 µM.
